Assay results as given in patent USRE39155E1, “Use of 1,3-oxathiolane nucleoside analogues in the treatment of hepatitis B” (Shire BioChem Inc., priority 1991, dated 2006).
In brackets after ≈: the same amount, converted by molar mass. Like-named read-outs stand apart in the source and are kept apart here.

Tests used:
[1] = tested on: hepatitis B virus; test: General statement of activity against hepatitis B virus in vitro and in vivo
[2] = tested on: Duck hepatitis B virus; test: Activity against Duck hepatitis B virus in primary duck hepatocyte cultures, DHBV DNA dot-blot; type: cell-based; settings: DHBV-infected primary duck hepatocytes
Protocol: The DNA from DHBV-infected hepatocytes was extracted and spotted onto a nitrocellular filter. […] The DNA was extracted from 6-cm cell culture dishes at various times post-plating. In the VC group, cells were harvested at 2, 6, 8, 10, 14, 18 and 20 days. Duplicate samples were spotted for days 14, 18 and 20. […] Drugs were added to the culture at 2 days post-plating and maintained throughout media changes every 2 days. The total intracellular DNA was extracted from cells using the standard phenol extraction method. […] The pellet of nucleic acid was washed with ethanol and dried. The DNA was dissolved in a solution containing 12.5 mM Tris HCl, pH 7.5, 10 mM EDTA, 30% glycerol and 0.01% bromophenol blue.

[3] = tested on: human hepatitis B virus; test: 2.2.15 cells (Hep G2 transfected with HBV genomic DNA), extracellular HBV DNA dot-blot after 10 day treatment; type: cell-based
Protocol: (ii) The method used for this test is described in detail in Korba et al. Antiviral Research 15, 217-228, 1992, and summarised below.
Hep G2 cells transfected with human hepatitis B virus genomic DNA (2.2.15 cells) were grown and maintained in RPMI-1640 culture medium containing 5% foetal bovine serum, 2 mM glutamine and 50 μg/ml gentamicin sulphate, and checked routinely for G418 resistance. Cultures of 2.2.15 cells were grown to confluence in 24 well tissue culture plates and maintained for 2 to 3 days in that condition prior to drug treatment.
These solutions were diluted as needed in culture medium.
The culture medium on the confluent cells was changed 24 hours prior to exposure to test compounds. During the 10 day treatment the culture medium was changed daily. After 10 days of treatment the culture medium was collected and frozen at −70° C. for HBV DNA analysis.
To analyse extracellular HBV DNA, 0.2 ml samples of culture medium were incubated for 20 minutes at 25° C. in 1M NaOH/10X SSC (1X SSC is 0.15M NaCl/0.015 M Sodium Citrate, pH 7.2) and then applied to nitrocellulose membranes presoaked in 20X SSC using a blotting apparatus. Samples were neutralised by washing twice with 0.5 ml of 1M Tris, pH 7.2/2M NaCl and once with 5 ml of 20X SSC. Filters were then rinsed in 2X SSC and baked at 80° C. for 1 hour under vacuum.
A purified 3.2 kb EcoRl HBV DNA fragment was labelled with [^32P]dCTP by nick translation and used as a probe to detect HBV DNA on the dot-blot by DNA hybridisation. After washing, the hybridised blot was dried and ^32P was quantified using an Ambis beta scanner.

[4] = Duck hepatitis B virus, Hepatocyte, read-out: IC50
[5] = 2.2.15 cells, 10 day treatment, extracellular HBV DNA, read-out: IC50

For Nc1ccn(C2CSC(CO)O2)c(=O)n1 (racemic) [Racemate, cis-4-amino-1-(2-hydroxymethyl-1,3-oxathiolan-5-yl-(1H)-pyrimidin-2-one], the “activity against the hepatitis B virus” value ([1]; listed as BCH-189) was “active both in vitro and in vivo” and the “activity against the hepatitis B virus” value ([1]; listed as compound of formula (I)) was “inhibit the hepatitis B virus both in vitro and in vivo”.
For Nc1ccn([C@H]2CS[C@@H](CO)O2)c(=O)n1 (stereo in doubt) [Compound 3TC, (2R,cis)-4-amino-1-(2-hydroxymethyl-1,3-oxathiolan-5-yl)-(1H)-pyrimidin-2-one], the IC50 [2, 4] was under 1 mg/L.
With Nc1ccn([C@@H]2CS[C@H](CO)O2)c(=O)n1 [Compound 3TC, (2R,cis)-4-amino-1-(2-hydroxymethyl-1,3-oxathiolan-5-yl)-(1H)-pyrimidin-2-one] the IC50 ([3]; Hepatitis B virus, HepG2, 240 h, 2.2.15 cells, 10 day treatment, extracellular HBV DNA, read-out: IC50) was 5.6 µM and the “activity against the hepatitis B virus” value [1] was “active both in vitro and in vivo”.
Work on Nc1ncnc2c1ncn2[C@@H]1O[C@H](COP(=O)(O)O)[C@@H](O)[C@@H]1O [araAMP, adenosylarabinoside-5′-monophosphate] yielded an IC50 [3, 5] of 2.9 µM.
In the case of Nc1nc2c(ncn2[C@H]2C[C@@H](CO)[C@H](O)C2)c(=O)[nH]1 [cdG, carbocyclic deoxyguanosine], the IC50 [3, 5] is reported as 0.034 µM.
Work on Nc1ccn([C@H]2CC[C@@H](CO)O2)c(=O)n1 [ddC, 2′,3′-dideoxycytidine] yielded an IC50 ([3]; Hepatitis B virus, HepG2, 240 h, read-out: IC50 μM) of 2.2 µM.
With Nc1nc(N)c2ncn([C@H]3CC[C@@H](CO)O3)c2n1 [ddDAPR, 2,6-diaminopurine-9-β-D-2′,3′-dideoxyribofuranoside] the “IC50” value [2] was 0.07 mg/L (≈ 0.28 µM).
Nc1nc2c(ncn2[C@H]2CC[C@@H](CO)O2)c(=O)[nH]1 [ddG, 2′,3′-dideoxy-guanosine] gave an IC50 [2, 4] of 0.07 mg/L (≈ 0.279 µM).
